Results taken from patent US6344474B1, “Use of central cannabinoid receptor antagonists for regulating appetence” (Sanofi-Synthelabo, priority 1997, dated 2002).

Assays:
Male Sprague-Dawley rats = assay: Effect of SR 141716 A on the intake of a sucrose solution in rats; type: in vivo, rat; settings: for Consumption of sucrose solution in g, 1 hour / Consumption of sucrose solution in g, 2 hours / Consumption of sucrose solution in g, 3 hours / Consumption of sucrose solution in g, 4 hours: 5% sucrose solution; for Consumption of sucrose solution in g, 1 hour: T0+1 hour; for Consumption of sucrose solution in g, 2 hours: T0+2 hours; for Consumption of sucrose solution in g, 3 hours: T0+3 hours; for Consumption of sucrose solution in g, 4 hours: T0+4 hours
Method: TEST No. 1: Effect of SR 141716 A on the intake of a sucrose solution in rats
The experiment is performed according to W. C. Lynch et al., Physiol. Behav., 1993, 54, 877-880.
Male Sprague-Dawley rats weighing 190 to 210 g are under a normal light cycle (from 7 am to 7 pm) and receive water and food ad libitum.
For 6 days, between 11 am and 3 pm, the food and the water bottles are withdrawn and the rats are given a 5% sucrose solution to drink.
Rats drinking less than 3 g of sucrose solution are eliminated.
On the seventh day the test is carried out according to the following procedure:
9 am: withdrawal of food,
10 am: oral administration of SR 141716 A,
11 am=T0: introduction of bottles containing a weighed sucrose solution , T0+1 hour, T0+2 hours, T0+3 hours, T0+4 hours: measurement of the sucrose consumption by weighing of the bottles.

Male C 57 BL 6 mice = assay: Effect of SR 141716 A on the consumption of an alcohol solution in mice; type: in vivo, mouse; settings: 6 hours; for Amount of alcohol consumed in g on D4: 10% alcohol solution
Method: TEST No. 2: Effect of SR 141716 A on the consumption of an alcohol solution in mice
Male C 57 BL 6 mice (Iffa-Credo) are isolated on the day of their arrival in an animal housing under a reverse cycle (night from 10 am to 10 pm) with 2 bottles filled with water. After 1 week, one of the bottles of water is replaced with a bottle filled with a 10% alcohol solution for 6 hours of the test. Each day, 30 minutes before the bottle of alcohol is introduced, the mice are treated subcutaneously with SR 141716 A. The amounts of alcohol and water consumed are measured after 6 hours. The test is repeated for 4 days.

## Cc1c(C(=O)NN2CCCCC2)nn(-c2ccc(Cl)cc2Cl)c1-c1ccc(Cl)cc1 [SR 141716 A, N-piperidino-5-(4-chlorophenyl)-1-(2,4-dichlorophenyl)-4-methylpyrazole-3-carboxamide]
Male Sprague-Dawley rats; 0.3 mg/kg po
  Consumption of sucrose solution in g, 1 hour: 5.18 g
  Consumption of sucrose solution in g, 2 hours: 9.18 g
  Consumption of sucrose solution in g, 3 hours: 12.49 g
  Consumption of sucrose solution in g, 4 hours: 16.10 g
Male Sprague-Dawley rats; 1 mg/kg po
  Consumption of sucrose solution in g, 1 hour: 3.27 ± g
  Consumption of sucrose solution in g, 2 hours: 3.61 ± g
  Consumption of sucrose solution in g, 3 hours: 5.65 ± g
  Consumption of sucrose solution in g, 4 hours: 7.43 ± g
Male Sprague-Dawley rats; 3 mg/kg po
  Consumption of sucrose solution in g, 1 hour: 2.95 ± g
  Consumption of sucrose solution in g, 2 hours: 5.41 ± g
  Consumption of sucrose solution in g, 3 hours: 6.96 ± g
  Consumption of sucrose solution in g, 4 hours: 8.58 ± g
Male Sprague-Dawley rats; oral administration
  Dose at or above which consumption of aqueous sugar solution is very considerably reduced: ≥ 0.3 mg/kg
Male C 57 BL 6 mice; 0.1 mg/kg sc
  Amount of alcohol consumed in g on D4: 1.4 ± 0.2 g
  Amount of water consumed: 1.1 ± 0.3 g
Male C 57 BL 6 mice; 0.3 mg/kg sc
  Amount of alcohol consumed in g on D4: 1.3 ± 0.2 g
  Amount of water consumed: 1.1 ± 0.3 g
Male C 57 BL 6 mice; 1 mg/kg sc
  Amount of alcohol consumed in g on D4: 1.1 ± 0.2 g
  Amount of water consumed: 1.3 ± 0.1 g
Male C 57 BL 6 mice; 3 mg/kg sc, 3 mg/kg
  Amount of alcohol consumed in g on D4: 1.0 ± 0.2 g
  Amount of water consumed: 1.6 ± 0.3 g
